A word on the half-life: it is the time in which the quantity being followed falls by half. A low value points to fast loss. In general, Ki refers to the equilibrium dissociation constant of an inhibitor or competing ligand from its target. As a reminder, the bioavailability is the share of a dose that reaches the circulation, judged against a reference dose that is usually intravenous. Lower therefore signals poor availability.

The text below walks through data of ChEMBL document CHEMBL1133772, “In vitro and in vivo evaluation of dihydropyrimidinone C-5 amides as potent and selective alpha(1A) receptor antagonists for the treatment of benign prostatic hyperplasia” (J Med Chem, 2000).

Some results are limits rather than exact numbers.

Data set [1] is filed under the species Canis familiaris. The data set can be described thus: Dose effecting a 20 mmHg change in diastolic blood pressure (SEM<10%) in dog. In kind it is functional, Canis lupus familiaris, Artery.
For data set [2], the species on record is Canis familiaris. The data set can be described thus: Evaluated for the inhibition of phenylephrine-induced contraction (SEM<10%) in dog. In kind it is functional, Canis lupus familiaris.
For data set [3], the species on record is Rattus norvegicus. The experiment in a line: Evaluated for the inhibition of A61603-induced contraction; n=4 and data for each concentration was averaged (SEM<10%) in rat. In kind it is functional.
Data set [4] is described as follows: t1/2 in rat. In kind it is ADME, organism-based. The following applies: in vivo.
The target of data set [5] is T1, Alpha-1B adrenergic receptor (Homo sapiens, UniProt P35368).
T1 sequence (P35368 whole entry): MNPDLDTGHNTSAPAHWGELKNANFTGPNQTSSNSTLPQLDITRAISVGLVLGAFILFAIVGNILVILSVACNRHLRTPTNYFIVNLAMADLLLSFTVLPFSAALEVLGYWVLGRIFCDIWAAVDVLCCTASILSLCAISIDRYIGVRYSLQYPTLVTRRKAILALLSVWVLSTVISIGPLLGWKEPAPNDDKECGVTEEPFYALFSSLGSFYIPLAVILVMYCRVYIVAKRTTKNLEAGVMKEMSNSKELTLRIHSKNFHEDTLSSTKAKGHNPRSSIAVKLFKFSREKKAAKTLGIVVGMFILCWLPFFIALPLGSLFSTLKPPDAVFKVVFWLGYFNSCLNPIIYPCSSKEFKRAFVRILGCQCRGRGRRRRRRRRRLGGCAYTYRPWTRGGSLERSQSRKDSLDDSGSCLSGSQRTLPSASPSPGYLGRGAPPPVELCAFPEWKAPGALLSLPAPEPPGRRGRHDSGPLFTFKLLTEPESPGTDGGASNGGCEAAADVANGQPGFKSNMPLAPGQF
The experiment in a line: Evaluated for the ability to displace [125I]- HEAT from human cloned Alpha-1B adrenergic receptor stably expressed in LM cells. In kind it is cell-based.

The target of data set [6] is T2, Alpha-1D adrenergic receptor (Homo sapiens, UniProt P25100).
T2 sequence (P25100 whole entry): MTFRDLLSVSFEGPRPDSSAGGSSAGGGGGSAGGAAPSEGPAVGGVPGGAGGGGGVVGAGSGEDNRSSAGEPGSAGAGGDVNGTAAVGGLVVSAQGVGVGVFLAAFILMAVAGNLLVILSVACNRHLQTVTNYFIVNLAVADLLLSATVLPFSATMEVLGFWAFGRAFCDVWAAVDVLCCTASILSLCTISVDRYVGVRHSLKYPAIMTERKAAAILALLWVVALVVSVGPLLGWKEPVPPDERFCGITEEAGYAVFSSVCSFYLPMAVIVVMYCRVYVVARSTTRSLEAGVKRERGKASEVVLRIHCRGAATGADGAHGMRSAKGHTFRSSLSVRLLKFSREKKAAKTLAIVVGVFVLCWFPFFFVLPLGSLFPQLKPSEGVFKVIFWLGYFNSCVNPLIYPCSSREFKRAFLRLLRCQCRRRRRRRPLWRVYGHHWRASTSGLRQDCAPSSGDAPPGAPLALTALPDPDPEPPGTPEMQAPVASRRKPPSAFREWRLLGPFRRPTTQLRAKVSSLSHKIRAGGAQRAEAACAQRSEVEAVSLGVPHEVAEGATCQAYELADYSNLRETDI
The experiment in a line: Evaluated for the ability to displace [125I]- HEAT from human cloned Alpha-1D adrenergic receptor stably expressed in HEK cells. In kind it is cell-based, HEK293.

Data set [7] is filed under the species Canis familiaris. The experiment in a line: Dose effecting a 20 mmHg change in diastolic blood pressure in dog. In kind it is functional, Canis lupus familiaris, Artery.
Data set [8] in a line: The compound was evaluated for the bioavailability when dosed 0.5 mg/kg intravenously and 1 mg/kg perorally in dog. In kind it is ADME, organism-based, Canis lupus familiaris. The following applies: in vivo, po.
Data set [9] can be described thus: Bioavailability in rat. In kind it is ADME, organism-based. As to conditions: in vivo.
For data set [10], the species on record is Canis familiaris. The experiment in a line: Compound was evaluated for the inhibition of phenylephrine-induced contraction in dog. In kind it is functional, Canis lupus familiaris.
Data set [11] deals with T3, Alpha-1A adrenergic receptor (Homo sapiens, UniProt P35348).
T3 sequence (P35348 whole entry): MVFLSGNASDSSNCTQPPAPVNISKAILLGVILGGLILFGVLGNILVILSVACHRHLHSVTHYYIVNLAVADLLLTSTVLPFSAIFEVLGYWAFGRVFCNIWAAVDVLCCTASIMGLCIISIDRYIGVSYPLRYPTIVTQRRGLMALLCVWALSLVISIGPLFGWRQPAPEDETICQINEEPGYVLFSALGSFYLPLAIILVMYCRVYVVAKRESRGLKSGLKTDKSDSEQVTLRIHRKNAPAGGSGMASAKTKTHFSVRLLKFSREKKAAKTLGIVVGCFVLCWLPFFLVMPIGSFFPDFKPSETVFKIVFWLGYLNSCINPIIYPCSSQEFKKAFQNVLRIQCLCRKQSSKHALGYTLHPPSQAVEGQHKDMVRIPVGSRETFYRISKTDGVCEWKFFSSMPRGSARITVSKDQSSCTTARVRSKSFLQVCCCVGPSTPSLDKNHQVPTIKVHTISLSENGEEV
The data set can be described thus: Ability to displace [125I]- HEAT from human cloned Alpha-1A adrenergic receptor stably expressed in CHO cells. In kind it is cell-based.

The species entered for data set [12] is Rattus norvegicus. The data set can be described thus: Evaluated for the inhibition of A61603-induced prostate contraction in rat. In kind it is functional, Prostate gland.
The species named for data set [13] is Rattus norvegicus. The experiment in a line: Duration of action with repeated challenges of A61603 agonist in rat. In kind it is functional.
A short description of data set [14]: The compound was evaluated for plasma half-life from intravenous dose in dog. In kind it is ADME, organism-based, Canis lupus familiaris.
Data set [15] concerns the target T3, Alpha-1A adrenergic receptor. The experiment in a line: Evaluated for the ability to displace [125I]- HEAT from human cloned Alpha-1A adrenergic receptor stably expressed in CHO cells. In kind it is cell-based.
The species named for data set [16] is Canis familiaris. The data set can be described thus: The compound was evaluated for the inhibition of phenylephrine-induced contraction in dog. In kind it is functional, Canis lupus familiaris.
Data set [17] is filed under the species Rattus norvegicus. The experiment in a line: Duration of action with repeated challenges of A61603 agonist, n=4, data from each time point was averaged (SEM<10%) in rat. In kind it is functional.
Data set [18] is filed under the species Rattus norvegicus. The experiment in a line: Inhibition of A61603-induced contraction; n=4 and data for each concentration was averaged (SEM<10%) in rat. In kind it is functional.

Compound `COc1cc2nc(N3CCN(C(=O)C4CCCO4)CC3)nc(N)c2cc1OC` (stereo not given) [TERAZOSIN] returned a DBP-20 in data set [1] of 74 µg/kg. The “IUP AD50” value in data set [2] is 97 µg/kg. Also, the AD50 in [3] turned out to be 52 µg/kg.
Consider `COCC1=C(C(=O)NCCCN2CCC(c3ccc(F)cc3)CC2)[C@@H](c2ccc(F)c(F)c2)NC(=O)N1`, for which the half-life is 6.47 h in data set [4] and 7.77 h in [14]. The Ki in [5] is 41 nM; in [6], 260 nM; in data set [11] it was 0.24 nM. The DBP-20 in data set [7] was >300 µg/kg. In addition, the bioavailability in data set [8] came to 40%; in data set [9], 26%. In addition, the AD50 in [10] came to 25 µg/kg; in data set [12], 4.6 µg/kg. In data set [13], this compound gave a Duration of 1 h.
`CC1=C(C(=O)NCCCN2CCC(c3ccccc3C#N)CC2)[C@@H](c2ccc(F)c(F)c2)NC(=O)N1`: the half-life in data set [4] came out at 2.7 h. The Ki stood at 158 nM in [5], 168 nM in data set [6] and 0.25 nM in data set [15]. Further, in data set [7], the DBP-20 was >300 µg/kg. In [9], the bioavailability amounted to 0%. In data set [12], this compound returned an AD50 of 3 µg/kg. Moreover, the Duration in data set [13] was <0.5 h. Further, in [16], the “IUP AD50” value worked out at 6 µg/kg.
`CCOc1ccccc1OCCN[C@H](C)Cc1ccc(OC)c(S(N)(=O)=O)c1` [TAMSULOSIN]: the Duration in data set [17] came to 3.5 h. The AD50 in data set [18] amounted to 3 µg/kg.
